Earlier results in patent publication US5756508A, “Muscarine antagonists” (Merck & Co., Inc., priority 1996, dated 1998).

What was measured:
[1] = test system: smooth muscle (ordinarily called m3 type); settings: background statement
[2] = test system: axial elongation of the eye; settings: background statement
[3] = test system: muscarinic receptors (antimuscarinic); settings: background statement
[4] = background statement
pupil; ciliary muscle = settings: background statement

| SMILES | selectivity for smooth muscle (m3 type) receptors [1] | inhibition of axial elongation / enlargement of the eye [2] | antimuscarinic action / specificity [3] | sensitization [4] | impairment of ocular focusing / near visual work (pupil; ciliary muscle) | pupil dilation (mydriasis) (pupil; ciliary muscle) |
| --- | --- | --- | --- | --- | --- | --- |
| C[N+]1(C)CCC(OC(=O)C(c2ccccc2)c2ccccc2)CC1 [Example 4-DAMP, 4-diphenylacetoxy-N-methylpiperadine methiodide] | relatively selective antagonist for smooth muscle | – | – | – | – | – |
| CN1CCc2cccc3c2[C@H]1Cc1ccc(O)c(O)c1-3 [apomorphine] | – | found to inhibit or actually prevent the axial enlargement of the eye | – | – | – | – |
| CN1[C@@H]2CC[C@H]1C[C@@H](OC(=O)C(CO)c1ccccc1)C2 (stereo partly drawn) [atropine] | – | – | long-acting non-specific antimuscarinic agent | test positive in sensitization assays | impairs near visual work like reading | causes mydriasis (increase of pupil size) |
| CN1CCN(CC(=O)N2c3ccccc3C(=O)Nc3cccnc32)CC1 [pirenzepine] | – | inhibits axial elongation | – | test positive in sensitization assays | – | far less effective at pupil dilation than atropine |
